In patent publication US20200069685A1, “Dosing schedule for a combination of Ceritinib and an anti-PD-1 antibody molecule” (NOVARTIS AG, priority 2017, published 2020):

Experiments:
Type in all cases: in vivo, human
[1] = Ceritinib alone: side effects and dose adjustments in patients
Protocol: The doses were reduced from 750 mg in the steps of 150 mg down to the lowest 300 mg. If the patient required doses lower than 300 mg, ceritinib was discontinued. Approximately 54% of patients initiating treatment at the recommended dose of 750 mg fasted required at least one dose adjustment due to adverse reaction, with a median time to first dose reduction of approximately 7 weeks. However, based on the preliminary data from 36 patients, who were enrolled to 4 cohorts to the concomitant combination therapy of ceritinib and nivolumab, the rates of severe rash (even grade 3) were unexpectedly higher. The cohorts were as follows: cohort 1 (n=8), ceritinib 450 mg daily with a low fat meal in combination with nivolumab 3 mg/kg Q2W; cohort 2 (n=6), ceritinib 450 mg daily with a low fat meal in combination with nivolumab 3 mg/kg Q2W; cohort 3 (n=11), ceritinib 300 mg daily with a low fat meal in combination with nivolumab 3 mg/kg Q2W; cohort 4 (n=11), ceritinib 300 mg daily with a low fat meal in combination with nivolumab 3 mg/kg Q2W. Both dose levels, i.e. 450 mg and 300 mg of ceritinib, administered with the low fat meal led to severe rash. The 450 mg dose level had higher rates of some adverse events, especially grade-3 rash, than expected based on data from either single agent. The proportion of patients with grade-3 rash was higher at the 450 mg dose level, 4/14 patients (29%), than at the 300 mg dose level, 3/22 patients (14%). With regard to the efficacy of the combination therapy, of the 14 patients treated at the 450 mg dose level, 9 (64%) achieved a confirmed partial response. Of the 22 patients treated at the 300 mg dose level, 4 (18%) achieved a confirmed complete (1 patient) or partial (3 patients) response; however, limited follow up, especially for cohort 4, confounded the assessment of confirmed response. The disease control rate (DCR) was similar for the 450 mg and 300 mg dose levels, 79% and 82% respectively. […] However, the 300 mg dose level appeared to have a lower number of objective responses, although this observation was based on a small number of patients with limited follow-up. […] Therefore, based on the safety, efficacy, and PK data a new beneficial dosing regimen is provided that is expected to improve tolerability while maintaining exposure similar to that observed at the 450 mg dose level. We provide herein a dosing regimen for the combination therapy of ceritinib and an anti-PD-1 antibody molecule, where ceritinib is administered for 2 cycles before initiation of combination therapy with nivolumab. […]

[2] = Food effect study of ceritinib in healthy subjects; settings: single oral dose 500 mg
[3] = Ceritinib steady state PK (AUC0-24 and Cmax) in the ceritinib and nivolumab combination cohorts; settings: preliminary; ceritinib in combination with nivolumab
Protocol: The doses were reduced from 750 mg in the steps of 150 mg down to the lowest 300 mg. If the patient required doses lower than 300 mg, ceritinib was discontinued. Approximately 54% of patients initiating treatment at the recommended dose of 750 mg fasted required at least one dose adjustment due to adverse reaction, with a median time to first dose reduction of approximately 7 weeks. However, based on the preliminary data from 36 patients, who were enrolled to 4 cohorts to the concomitant combination therapy of ceritinib and nivolumab, the rates of severe rash (even grade 3) were unexpectedly higher. The cohorts were as follows: cohort 1 (n=8), ceritinib 450 mg daily with a low fat meal in combination with nivolumab 3 mg/kg Q2W; cohort 2 (n=6), ceritinib 450 mg daily with a low fat meal in combination with nivolumab 3 mg/kg Q2W; cohort 3 (n=11), ceritinib 300 mg daily with a low fat meal in combination with nivolumab 3 mg/kg Q2W; cohort 4 (n=11), ceritinib 300 mg daily with a low fat meal in combination with nivolumab 3 mg/kg Q2W. Both dose levels, i.e. 450 mg and 300 mg of ceritinib, administered with the low fat meal led to severe rash. The 450 mg dose level had higher rates of some adverse events, especially grade-3 rash, than expected based on data from either single agent. […]

[4] = Relative bioavailability study in healthy subjects, light snack cohort; settings: light snack (approximately 100-300 calories and 1.5 grams of fat), single 750 mg oral dose
[5] = high-fat meal (approximately 1000 calories and 58 grams of fat)
[6] = low-fat meal (approximately 330 calories and 9 grams of fat)

increase of AUCinf compared to the fasted state [2, 5]: 73% | increase of Cmax compared to the fasted state [2, 5]: 41% | increase of AUCinf compared to the fasted state [2, 6]: 58% | increase of Cmax compared to the fasted state [2, 6]: 43% | steady state exposure (AUC0-24 and Cmax) at 300 mg with food relative to 450 mg with food [3]: 60-65% | increase of AUCinf compared to the fasted condition [4]: 54% | increase of Cmax compared to the fasted condition [4]: 45%
SMILES: Cc1cc(Nc2ncc(Cl)c(Nc3ccccc3S(=O)(=O)C(C)C)n2)c(OC(C)C)cc1C1CCNCC1 [ceritinib, 5-chloro-N2-(2-isopropoxy-5-methyl-4-(piperidin-4-yl)phenyl)-N4-[2-(propane-2-sulfonyl)-phenyl]-pyrimidine-2,4-diamine]
rash [1]: observed rarely | side effects observed [1]: nausea, diarrhea, vomiting, fatigue, ALT/AST elevation, constipation, abdominal pain | median time to first dose reduction ([1]; 750 mg fasted): approximately 7 weeks | patients who required at least one dose adjustment due to adverse reaction ([1]; recommended dose of 750 mg fasted): Approximately 54%
